Test results published in PubChem BioAssay (NCI).
Several values for one entry are separate records, joined by “and”; a condition that tells them apart may be missing. Identical values can stand only once.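 Interpolation was linear, between the two tested concentrations surrounding the appropriate level; five concentrations were tested over 48 hours in 96-well plates. GI50 marks 50% less growth. TGI: concentration producing complete growth inhibition.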

Columns and labels:
Test in all cases: NCI anticancer screen, dose series, 48 h
MDA-MB-231 breast = test system: MDA-MB-231 breast
UACC-257 melanoma = test system: UACC-257 melanoma
MCF7 breast = test system: MCF7 breast
BT-549 breast = test system: BT-549 breast
SN12C renal = test system: SN12C renal
NCI/ADR-RES ovarian = test system: NCI/ADR-RES ovarian
CCRF-CEM leukemia = test system: CCRF-CEM leukemia
UACC-62 melanoma = test system: UACC-62 melanoma
DU-145 prostate = test system: DU-145 prostate
CAKI-1 renal = test system: CAKI-1 renal
OVCAR-4 ovarian = test system: OVCAR-4 ovarian
HCC-2998 colon = test system: HCC-2998 colon
LOX IMVI melanoma = test system: LOX IMVI melanoma
SR leukemia = test system: SR leukemia
NCI-H460 lung = test system: NCI-H460 lung
HT29 colon = test system: HT29 colon
COLO 205 colon = test system: COLO 205 colon
T-47D breast = test system: T-47D breast
EKVX NSCLC = test system: EKVX NSCLC
A549 NSCLC = test system: A549 NSCLC
NCI-H522 lung = test system: NCI-H522 lung
SF-539 CNS = test system: SF-539 CNS
SK-MEL-5 melanoma = test system: SK-MEL-5 melanoma
KM12 colon = test system: KM12 colon
RPMI-8226 leukemia = test system: RPMI-8226 leukemia
OVCAR-8 ovarian = test system: OVCAR-8 ovarian
HOP-92 NSCLC = test system: HOP-92 NSCLC
IGROV1 ovarian = test system: IGROV1 ovarian
PC-3 prostate = test system: PC-3 prostate
HCT-15 colon = test system: HCT-15 colon
HL-60(TB) leukemia = test system: HL-60(TB) leukemia
SK-OV-3 ovarian = test system: SK-OV-3 ovarian
HS 578T breast = test system: HS 578T breast
A498 renal = test system: A498 renal
MOLT-4 leukemia = test system: MOLT-4 leukemia
RXF 393 renal = test system: RXF 393 renal
U251 CNS = test system: U251 CNS
TK-10 renal = test system: TK-10 renal
NCI-H23 lung = test system: NCI-H23 lung
K-562 leukemia = test system: K-562 leukemia
MALME-3M melanoma = test system: MALME-3M melanoma
HCT-116 colon = test system: HCT-116 colon
OVCAR-3 ovarian = test system: OVCAR-3 ovarian
SNB-19 CNS = test system: SNB-19 CNS
SK-MEL-28 melanoma = test system: SK-MEL-28 melanoma
HOP-62 NSCLC = test system: HOP-62 NSCLC
786-0 renal = test system: 786-0 renal
SF-268 CNS = test system: SF-268 CNS
SK-MEL-2 melanoma = test system: SK-MEL-2 melanoma
SNB-75 CNS = test system: SNB-75 CNS
UO-31 renal = test system: UO-31 renal
ACHN renal = test system: ACHN renal
MDA-MB-435 = test system: MDA-MB-435
M14 melanoma = test system: M14 melanoma
SF-295 CNS = test system: SF-295 CNS
OVCAR-5 ovarian = test system: OVCAR-5 ovarian
NCI-H226 lung = test system: NCI-H226 lung
SW-620 colon = test system: SW-620 colon

For NS(=O)(=O)c1ccc(N=Cc2c(O)[nH]c3ccc4ncsc4c23)cc1, the GI50 (MDA-MB-231 breast) was 1.06 µM and 5.66 µM, the TGI (MDA-MB-231 breast) was > 25 µM and the GI50 (UACC-257 melanoma) was 3.11 µM and 6.09 µM. The TGI (UACC-257 melanoma) was 19 µM and 16.6 µM, the GI50 (MCF7 breast) was 0.755 µM and 1.77 µM and the TGI (MCF7 breast) was > 24 µM. For the same molecule, the GI50 (BT-549 breast) was 0.693 µM and 2.34 µM, the TGI (BT-549 breast) was 2.06 µM and 9.04 µM and the GI50 (SN12C renal) was 0.982 µM and 3.21 µM. The TGI (SN12C renal) was > 25 µM, the GI50 (NCI/ADR-RES ovarian) was 3.5 µM and 5.42 µM and the TGI (NCI/ADR-RES ovarian) was > 25 µM. The GI50 (CCRF-CEM leukemia) was 0.793 µM and 0.699 µM, the TGI (CCRF-CEM leukemia) was > 25 µM and the GI50 (UACC-62 melanoma) was 1.05 µM and 3.67 µM. The TGI (UACC-62 melanoma) was 4.71 µM and 9.09 µM, the GI50 (DU-145 prostate) was 0.394 µM and 3.03 µM and the TGI (DU-145 prostate) was > 25 µM. The GI50 (CAKI-1 renal) was 5.85 µM and 6.52 µM, the TGI (CAKI-1 renal) was > 25 µM and the GI50 (OVCAR-4 ovarian) was 0.821 µM and 1.87 µM. For the same molecule, the TGI (OVCAR-4 ovarian) was 2.92 µM and 16.1 µM, the GI50 (HCC-2998 colon) was 0.751 µM and 1.41 µM and the TGI (HCC-2998 colon) was 3.87 µM and 7.05 µM. For the same molecule, the GI50 (LOX IMVI melanoma) was 0.85 µM and 2.13 µM, the TGI (LOX IMVI melanoma) was > 25 µM and the GI50 (SR leukemia) was 0.213 µM and 0.518 µM. For the same molecule, the TGI (SR leukemia) was > 5.71 µM and 2.11 µM, the GI50 (NCI-H460 lung) was 0.764 µM and 5.92 µM and the TGI (NCI-H460 lung) was > 25 µM. The GI50 (HT29 colon) was 3.5 µM and 8.16 µM, the TGI (HT29 colon) was > 25 µM and the GI50 (COLO 205 colon) was 1.36 µM and 3.84 µM. For the same molecule, the TGI (COLO 205 colon) was 5.03 µM and 9.19 µM, the GI50 (T-47D breast) was 0.781 µM and 2.36 µM and the TGI (T-47D breast) was 2.16 µM and > 20 µM. For the same molecule, the GI50 (EKVX NSCLC) was 7.91 µM and 8.52 µM, the TGI (EKVX NSCLC) was > 25 µM and the GI50 (A549 NSCLC) was 5.02 µM and 9.11 µM. For the same molecule, the TGI (A549 NSCLC) was > 25 µM, the GI50 (NCI-H522 lung) was 0.508 µM and 0.532 µM and the TGI (NCI-H522 lung) was 1.58 µM and 1.88 µM. The GI50 (SF-539 CNS) was 0.626 µM and 1.08 µM, the TGI (SF-539 CNS) was 2 µM and 4.91 µM and the GI50 (SK-MEL-5 melanoma) was 1.04 µM and 2.74 µM. The TGI (SK-MEL-5 melanoma) was > 10.5 µM and 15.3 µM, the GI50 (KM12 colon) was 0.566 µM and 1.97 µM and the TGI (KM12 colon) was 8.58 µM and 18.4 µM. For the same molecule, the GI50 (RPMI-8226 leukemia) was 5.6 µM and 7.17 µM, the TGI (RPMI-8226 leukemia) was > 21.2 µM and the GI50 (OVCAR-8 ovarian) was 0.75 µM and 1.73 µM. The TGI (OVCAR-8 ovarian) was > 25 µM, the GI50 (HOP-92 NSCLC) was 1.72 µM and the TGI (HOP-92 NSCLC) was > 7.33 µM. For the same molecule, the GI50 (IGROV1 ovarian) was 6.53 µM and 8.83 µM, the TGI (IGROV1 ovarian) was > 25 µM and the GI50 (PC-3 prostate) was 3.1 µM and 2.08 µM. The TGI (PC-3 prostate) was > 22.9 µM, the GI50 (HCT-15 colon) was 7.16 µM and 7.13 µM and the TGI (HCT-15 colon) was > 25 µM and 24.5 µM. For the same molecule, the GI50 (HL-60(TB) leukemia) was 1.57 µM and 1.93 µM, the TGI (HL-60(TB) leukemia) was 4.1 µM and 4.79 µM and the GI50 (SK-OV-3 ovarian) was 3.84 µM and 9.75 µM. The TGI (SK-OV-3 ovarian) was > 25 µM, the GI50 (HS 578T breast) was 0.783 µM and 1.04 µM and the TGI (HS 578T breast) was > 7.17 µM. The GI50 (A498 renal) was 3.69 µM and 6.71 µM, the TGI (A498 renal) was 9.95 µM and 14.7 µM and the GI50 (MOLT-4 leukemia) was 0.476 µM and 0.886 µM. For the same molecule, the TGI (MOLT-4 leukemia) was 1.57 µM and 4.26 µM, the GI50 (RXF 393 renal) was 0.856 µM and 2.12 µM and the TGI (RXF 393 renal) was 2.47 µM and 7.85 µM. The GI50 (U251 CNS) was 0.715 µM and 1.63 µM, the TGI (U251 CNS) was > 8.07 µM and the GI50 (TK-10 renal) was 4.2 µM and 7.65 µM. The TGI (TK-10 renal) was 17.1 µM and 19.1 µM, the GI50 (NCI-H23 lung) was 1.11 µM and 3.98 µM and the TGI (NCI-H23 lung) was 7.24 µM and 15.7 µM. For the same molecule, the GI50 (K-562 leukemia) was 1.27 µM and 2.19 µM, the TGI (K-562 leukemia) was > 25 µM and the GI50 (MALME-3M melanoma) was 1.44 µM and 2.27 µM. For the same molecule, the TGI (MALME-3M melanoma) was 10.7 µM and > 19 µM, the GI50 (HCT-116 colon) was 0.845 µM and 1.78 µM and the TGI (HCT-116 colon) was > 25 µM. The GI50 (OVCAR-3 ovarian) was 0.189 µM and 0.756 µM, the TGI (OVCAR-3 ovarian) was > 6.36 µM and 3.42 µM and the GI50 (SNB-19 CNS) was 0.885 µM and 2.16 µM. The TGI (SNB-19 CNS) was > 25 µM, the GI50 (SK-MEL-28 melanoma) was 0.858 µM and 2.49 µM and the TGI (SK-MEL-28 melanoma) was 2.55 µM and 10.9 µM. For the same molecule, the GI50 (HOP-62 NSCLC) was 0.887 µM and 3.49 µM, the TGI (HOP-62 NSCLC) was 4.17 µM and 15.1 µM and the GI50 (786-0 renal) was 1.02 µM and 3.67 µM. The TGI (786-0 renal) was > 25 µM and 18.8 µM, the GI50 (SF-268 CNS) was 0.678 µM and 0.792 µM and the TGI (SF-268 CNS) was 2.28 µM and 2.72 µM. The GI50 (SK-MEL-2 melanoma) was 0.644 µM and 1.15 µM, the TGI (SK-MEL-2 melanoma) was 1.36 µM and 3.07 µM and the GI50 (SNB-75 CNS) was 0.857 µM and 3.64 µM. For the same molecule, the TGI (SNB-75 CNS) was 2.61 µM and 10 µM, the GI50 (UO-31 renal) was 4.51 µM and 6.2 µM and the TGI (UO-31 renal) was > 21.3 µM. For the same molecule, the GI50 (ACHN renal) was 2.2 µM and 5.31 µM, the TGI (ACHN renal) was > 25 µM and the GI50 (MDA-MB-435) was 2.44 µM and 3.76 µM. The TGI (MDA-MB-435) was > 19.5 µM and 18.4 µM, the GI50 (M14 melanoma) was 2.08 µM and 4.14 µM and the TGI (M14 melanoma) was 6.99 µM and 9.39 µM. For the same molecule, the GI50 (SF-295 CNS) was 4.02 µM and 7.28 µM, the TGI (SF-295 CNS) was > 23.2 µM and the GI50 (OVCAR-5 ovarian) was 2.91 µM and 7.56 µM. The TGI (OVCAR-5 ovarian) was > 25 µM, the GI50 (NCI-H226 lung) was 0.931 µM and 2.94 µM and the TGI (NCI-H226 lung) was 6.26 µM and 15.5 µM. The GI50 (SW-620 colon) was 0.891 µM and 1.8 µM and the TGI (SW-620 colon) was > 21.9 µM.
